Reference: PubChem BioAssay (NCI)
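GI50 = concentration required for 50% inhibition of growth. TGI denotes the concentration required for complete inhibition of growth.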

How the values were obtained:
Assay in all cases: NCI anticancer screen, dose series, 384-well format
[1] = system: 786-0 renal
[2] = system: A498 renal
[3] = system: A549 NSCLC
[4] = system: ACHN renal
[5] = system: BT-549 breast
[6] = system: CAKI-1 renal
[7] = system: CCRF-CEM leukemia
[8] = system: COLO 205 colon
[9] = system: DU-145 prostate
[10] = system: EKVX NSCLC
[11] = system: HCC-2998 colon
[12] = system: HCT-116 colon
[13] = system: HCT-15 colon
[14] = system: HL-60(TB) leukemia
[15] = system: HOP-62 NSCLC
[16] = system: HOP-92 NSCLC
[17] = system: HS 578T breast
[18] = system: HT29 colon
[19] = system: IGROV1 ovarian
[20] = system: K-562 leukemia
[21] = system: KM12 colon
[22] = system: LOX IMVI melanoma
[23] = system: M14 melanoma
[24] = system: MALME-3M melanoma
[25] = system: MCF7 breast
[26] = system: MDA-MB-231 breast
[27] = system: MDA-MB-435 melanoma
[28] = system: MDA-MB-468 breast
[29] = system: MOLT-4 leukemia
[30] = system: NCI-H226 lung
[31] = system: NCI-H23 lung
[32] = system: NCI-H322M lung
[33] = system: NCI-H460 NSCLC
[34] = system: NCI-H522 lung
[35] = system: NCI/ADR-RES ovarian
[36] = system: OVCAR-3 ovarian
[37] = system: OVCAR-4 ovarian
[38] = system: OVCAR-5 ovarian
[39] = system: OVCAR-8 ovarian
[40] = system: PC-3 prostate
[41] = system: RPMI-8226 leukemia
[42] = system: RXF 393 renal
[43] = system: SF-268 CNS
[44] = system: SF-295 CNS
[45] = system: SF-539 CNS
[46] = system: SK-MEL-28 melanoma
[47] = system: SK-MEL-5 melanoma
[48] = system: SK-OV-3 ovarian
[49] = system: SN12C renal
[50] = system: SNB-19 CNS
[51] = system: SNB-75 CNS
[52] = system: SR leukemia
[53] = system: SW-620 colon
[54] = system: T-47D breast
[55] = system: TK-10 renal
[56] = system: U251 glioblastoma
[57] = system: UACC-257 melanoma
[58] = system: UO-31 renal

In the case of `Cc1noc(C)c1-c1ccc2[nH]c(=O)n3c2c1OC[C@@H]3c1ccccn1`, the GI50 [1] is reported as 0.749 µM, the TGI [1] is reported as > 100 µM and the GI50 [2] is reported as 0.42 µM. For the same molecule, the TGI [2] was > 100 µM, the GI50 [3] was 0.656 µM and the TGI [3] was > 100 µM. For the same molecule, the GI50 [4] was 1.22 µM, the TGI [4] was > 100 µM and the GI50 [5] was 0.293 µM. The TGI [5] was 25.2 µM, the GI50 [6] was 0.243 µM and the TGI [6] was > 100 µM. For the same molecule, the GI50 [7] was 0.584 µM, the TGI [7] was > 100 µM and the GI50 [8] was 0.527 µM. The TGI [8] was > 100 µM, the GI50 [9] was 14.2 µM and the TGI [9] was > 100 µM. The GI50 [10] was > 100 µM, the TGI [10] was > 100 µM and the GI50 [11] was 0.127 µM. The TGI [11] was 2.11 µM, the GI50 [12] was 0.501 µM and the TGI [12] was > 100 µM. It also gave a GI50 [13] of 0.24 µM, a TGI [13] of 12 µM and a GI50 [14] of 0.0556 µM. For the same molecule, the TGI [14] was 0.17 µM, the GI50 [15] was 0.304 µM and the TGI [15] was 62.2 µM. The GI50 [16] was 0.241 µM, the TGI [16] was > 100 µM and the GI50 [17] was 0.152 µM. The TGI [17] was 1.6 µM, the GI50 [18] was 0.371 µM and the TGI [18] was > 100 µM. It also gave a GI50 [19] of 0.532 µM, a TGI [19] of 53 µM and a GI50 [20] of 0.436 µM. For the same molecule, the TGI [20] was > 100 µM, the GI50 [21] was 1.36 µM and the TGI [21] was > 100 µM. It also gave a GI50 [22] of 0.277 µM, a TGI [22] of 1.04 µM and a GI50 [23] of 0.72 µM. For the same molecule, the TGI [23] was > 100 µM, the GI50 [24] was 0.398 µM and the TGI [24] was 32.3 µM. For the same molecule, the GI50 [25] was 0.125 µM, the TGI [25] was > 100 µM and the GI50 [26] was 0.605 µM. The TGI [26] was > 100 µM, the GI50 [27] was 13.7 µM and the TGI [27] was > 100 µM. For the same molecule, the GI50 [28] was 0.241 µM, the TGI [28] was 8.12 µM and the GI50 [29] was 0.421 µM. For the same molecule, the TGI [29] was 11.9 µM, the GI50 [30] was 1.43 µM and the TGI [30] was > 100 µM. For the same molecule, the GI50 [31] was 0.483 µM, the TGI [31] was > 100 µM and the GI50 [32] was 0.591 µM. For the same molecule, the TGI [32] was > 100 µM, the GI50 [33] was 2.19 µM and the TGI [33] was > 100 µM. For the same molecule, the GI50 [34] was 0.0766 µM, the TGI [34] was 4.8 µM and the GI50 [35] was 0.653 µM. For the same molecule, the TGI [35] was 18.5 µM, the GI50 [36] was 0.227 µM and the TGI [36] was > 100 µM. It also gave a GI50 [37] of 0.107 µM, a TGI [37] of 0.495 µM and a GI50 [38] of 0.529 µM. For the same molecule, the TGI [38] was > 100 µM, the GI50 [39] was 0.473 µM and the TGI [39] was > 100 µM. For the same molecule, the GI50 [40] was 0.245 µM, the TGI [40] was > 100 µM and the GI50 [41] was 0.133 µM. The TGI [41] was 0.533 µM, the GI50 [42] was 0.483 µM and the TGI [42] was 11 µM. The GI50 [43] was 3.01 µM, the TGI [43] was > 100 µM and the GI50 [44] was 0.144 µM. For the same molecule, the TGI [44] was 41.8 µM, the GI50 [45] was 0.449 µM and the TGI [45] was 8.79 µM. The GI50 [46] was 0.813 µM, the TGI [46] was > 100 µM and the GI50 [47] was 0.198 µM. For the same molecule, the TGI [47] was 9.84 µM, the GI50 [48] was 0.244 µM and the TGI [48] was 21.3 µM. The GI50 [49] was 3.69 µM, the TGI [49] was > 100 µM and the GI50 [50] was 1.87 µM. The TGI [50] was > 100 µM, the GI50 [51] was 1.27 µM and the TGI [51] was > 100 µM. For the same molecule, the GI50 [52] was 0.0523 µM, the TGI [52] was 2.04 µM and the GI50 [53] was > 100 µM. The TGI [53] was > 100 µM, the GI50 [54] was 0.318 µM and the TGI [54] was 47.8 µM. For the same molecule, the GI50 [55] was 0.265 µM, the TGI [55] was 23.1 µM and the GI50 [56] was 2.56 µM. For the same molecule, the TGI [56] was > 100 µM, the GI50 [57] was 0.925 µM and the TGI [57] was > 100 µM. For the same molecule, the GI50 [58] was 0.722 µM and the TGI [58] was > 100 µM.
